From patent US9828333B2, “Compounds for the treatment of influenza” (CHRISTIAN-ALBRECHTS-UNIVERSITAT ZU KIEL, priority 2011, dated 2017)
Values after ≈ are worked out from the molar mass of the structure shown. Values joined by “and” are separate entries in the source; they are usually repeats but may differ in a detail not shown here. Equal values may be shown once. Where a name gives a salt, the structure may show the parent alone. Read-outs that look alike come from different tables or passages of the source.

Tests used:
physchem = assay type: physicochemical; conditions: thermodynamic from solid; for solubility: read-out: maximum soluble concentration
Method: 2. Solubility Assays of the Compounds Tested
Determining the Solubility at Different pH Values:
Therefor, a few mg of the compounds were weighed and mixed with the volume of 50 mM KH2PO4 buffer of respective pH value for a 50 mM solution. […] Subsequently, the undissolved portion was removed by centrifugation at 10.000 rpm for 15 min, and the concentration in the supernatant was determined by HPLC.

in vivo = conditions: Sprague Dawley, rat, in vivo, po, 50 mg/kg
Method: Sprague Dawley (SD) rats were supplied for habitation 10 days before the start of the experiment, weighing ˜300-350 g and kept in an air conditioned room with a constant temperature of 20° C. and a humidity of 50%. In this room there was a day-night rhythm of twelve hours. The dark phase began daily at 18 o'clock and turned over to the light phase at 6 clock. The rats were kept over the acclimatization period in standard cages of the size 3 (length: 42 cm, width 26 cm, height: 15 cm) and transferred three days before commencement of an experiment into a special experimental room, placed in the identical environmental conditions. They received a maintenance diet (maintenance diet for rats and mice; No. 1320; Altromin) and tap water ad libitum.
A catheter was implanted in the vein as well as in the arteria femoralis of rats receiving an i.v. administration. Rats receiving only oral administration of substances received a […] catheter only.
The catheterized animals were kept after surgery for a day in the experimental room and individually in their experimental cages. The application of the test compounds was carried out on the second day after the operation. On the experimental day, the rats were weighed one hour prior to the test and the arterial catheter was flushed with 300 μl of heparin solution. Subsequently, the i.v. or oral administration of the compounds was carried out.
The oral administrations were performed as a suspension or solution made with gum arabic (10% w/v) by gavage.
The oral administrations were made as suspension or solution with gum arabic (10% w/v) by gavage.
After i.v. administration, plasma samples were taken at 5, 10, 20, 45, 90, 150, 240 and 360 min, respectively after oral administration after 30, 60, 90, 120, 180, 240 and 360 min. To this, in each case 300 μl of whole blood were taken using an insulin syringe and transferred into EDTA-coated Microvettes CB 300 (Sarstedt, Nümbrecht). After each withdrawal it was rinsed with 100 μl 0.9% saline or every 60 min with heparin solution (250 IU/ml). The blood sample was shaken briefly and put until centrifugation (4° C.; 14000 U/min; 10 min) on ice. Subsequently, the samples were frozen at −80° C.
The plasma samples were processed and analyzed by HPLC. Therefor, the plasma samples were thawed at room temperature. In each case, 80 μl methanol (+0.2% TFA) were prepared and subsequently 80 μl of the plasma samples were pipetted into. The samples were shaken for 45 min to precipitate plasma proteins. The samples were frozen at −80° C., thawed and shaken for another 15 min. The samples were centrifuged for 15 min at 13.000 RPM and the supernatant was transferred into HPLC vials. In each case 50 μl were used for the determinations by LC/MS.
The animal studies were evaluated using the following LC/MS method.

albumin = albumin (Homo sapiens, UniProt P02768); assay type: in vitro ADME; conditions: 4% albumin solution, average of three concentrations (10, 25, 50 μM)
Method: 3. Determination of Protein Binding of the Amidine Effective Form (3) as Well as of Prodrugs Thereof (2, 4) and of the Guanidine Effective Form (9) as Well as of Prodrugs Thereof (6, 10)
The plasma protein binding was carried out in three different concentrations (10, 25, and 50 μM). A 4% albumin solution was used as protein solutions. In each case, 50 μl of a 10-fold concentrated substance solution were pipetted in 450 μl of the protein solution. The incubation was carried out for 15 minutes in the shaking water bath at 37° C. Subsequently, the samples were transferred in ultra-filtration units (Vivaspin 500, 10 kDa cut-off) and centrifuged for 15 min at 10.000 rpm. The filtrate was analyzed by HPLC. In addition, a control was run for each concentration, which was not treated with protein and not centrifuged.

[1] = system: influenza A virus A/342/2009; assay: microbe, parasite or virus in culture; assay type: cell-based, influenza A virus H1N1; conditions: read-out: 50% inhibitory concentration, A/342/2009
[2] = system: influenza A virus A/Jena/5258/2009; assay: microbe, parasite or virus in culture; assay type: cell-based, influenza A virus H1N1; conditions: read-out: 50% inhibitory concentration, A/Jena/5258/2009
[3] = system: influenza A virus A/Jena/5258/2009 (pandemic H1N1; oseltamivir-sensitive); assay type: cell-based

Chain of albumin (P02768 25-609): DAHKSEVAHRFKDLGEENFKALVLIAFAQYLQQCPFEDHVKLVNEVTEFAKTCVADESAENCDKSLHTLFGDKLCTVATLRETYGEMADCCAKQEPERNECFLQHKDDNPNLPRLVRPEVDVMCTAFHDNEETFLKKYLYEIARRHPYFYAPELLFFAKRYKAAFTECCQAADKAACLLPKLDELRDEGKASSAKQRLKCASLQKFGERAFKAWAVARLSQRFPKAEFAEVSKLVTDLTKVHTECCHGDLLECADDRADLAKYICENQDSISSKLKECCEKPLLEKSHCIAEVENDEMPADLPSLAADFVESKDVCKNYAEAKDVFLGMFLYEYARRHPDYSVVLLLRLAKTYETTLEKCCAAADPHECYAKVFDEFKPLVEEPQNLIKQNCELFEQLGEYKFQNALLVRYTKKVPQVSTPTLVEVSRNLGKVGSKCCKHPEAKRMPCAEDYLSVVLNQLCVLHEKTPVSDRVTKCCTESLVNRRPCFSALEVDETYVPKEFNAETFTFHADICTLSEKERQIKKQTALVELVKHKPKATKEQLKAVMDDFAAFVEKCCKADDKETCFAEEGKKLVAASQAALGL

Row | Compound | solubility at 30 min (physchem; aqueous buffer) | solubility at 30 min (physchem; pH 2, aqueous buffer) | solubility at 30 min (physchem; pH 7.4, aqueous buffer) | solubility at 30 min (physchem; pH 9, aqueous buffer) | Bioavailability (in vivo) | Plasma level of derivative 3 (Conc.) after oral administration of the labelled derivative (in vivo; 0 min) | Plasma level of derivative 3 (Conc.) after oral administration of the labelled derivative (in vivo; 30 min) | Plasma level of derivative 3 (Conc.) after oral administration of the labelled derivative (in vivo; 60 min) | Plasma level of derivative 3 (Conc.) after oral administration of the labelled derivative (in vivo; 90 min) | Plasma level of derivative 3 (Conc.) after oral administration of the labelled derivative (in vivo; 120 min) | Plasma level of derivative 3 (Conc.) after oral administration of the labelled derivative (in vivo; 180 min) | Plasma level of derivative 3 (Conc.) after oral administration of the labelled derivative (in vivo; 240 min) | Plasma level of derivative 3 (Conc.) after oral administration of the labelled derivative (in vivo; 360 min) | Protein binding (albumin) | further results
1 | CCOC(=O)C1=C[C@@H](OC(CC)CC)[C@H](NC(C)=O)[C@@H](NC(C)=N)C1 [Compound 2, (3R,4R,5S)-4-acetamido-5-(N-acetimidamido)-3-(1-ethylpropoxy)cyclohex-1-en-1-carboxylic acid ethyl ester hydrobromide] | > 50 mM | > 17700 µg/mL and > 50000 µM | > 17700 µg/mL and > 50000 µM | > 17700 µg/mL and > 50000 µM | 0.8% | 0 nM | 430 nM | 350 nM | 330 nM | 290 nM | 70 nM | 10 nM | 0 nM | 34.8 ± 8.8% | –
2 | CCOC(=O)C1=C[C@@H](OC(CC)CC)[C@H](NC(C)=O)[C@@H](N/C(C)=N/O)C1 [Compound 4, (3R,4R,5S)-4-acetamido-5-[N—(N′-hydroxy)acetimidamido]-3-(1-ethylpropoxy)cyclohex-1-en-1-carboxylic acid ethyl ester] | > 20 mM | > 18500 µg/mL and > 50000 µM | 8600 ± 400 µg/mL | 8600 ± 700 µg/mL | – | 0 nM | 6500 nM | 8980 nM | 8800 nM | 8100 nM | 6430 nM | 5340 nM | 2190 nM | 26.7 ± 2.5% | solubility (physchem; aqueous buffer, pH 7.4, 50 mM KH2PO4 buffer): 23.2 ± 1.2 mM (≈ 8570 µg/mL); solubility (physchem; aqueous buffer, pH 9.0, 50 mM KH2PO4 buffer): 23.3 ± 1.8 mM (≈ 8610 µg/mL); Plasma level of intermediary metabolite 11 (Conc.) after oral administration of derivative 4 (in vivo; 0 min): 0 nM; Plasma level of intermediary metabolite 11 (Conc.) after oral administration of derivative 4 (in vivo; 30 min): 7220 nM; Plasma level of intermediary metabolite 11 (Conc.) after oral administration of derivative 4 (in vivo; 60 min): 2680 nM; Plasma level of intermediary metabolite 11 (Conc.) after oral administration of derivative 4 (in vivo; 90 min): 2160 nM; Plasma level of intermediary metabolite 11 (Conc.) after oral administration of derivative 4 (in vivo; 120 min): 1960 nM; Plasma level of intermediary metabolite 11 (Conc.) after oral administration of derivative 4 (in vivo; 180 min): 850 nM; Plasma level of intermediary metabolite 11 (Conc.) after oral administration of derivative 4 (in vivo; 240 min): 490 nM; Plasma level of intermediary metabolite 11 (Conc.) after oral administration of derivative 4 (in vivo; 360 min): 130 nM
3 | CCOC(=O)C1=C[C@@H](OC(CC)CC)[C@H](NC(C)=O)[C@@H](NC(N)=NO)C1 [Compound 6, (3R,4R,5S)-4-acetamido-[N—(N′ hydroxy)guanidino]-3-(1-ethylpropoxy)cyclohex-1-en-1-carboxylic acid ethyl ester] | > 50 mM | > 18500 µg/mL and > 50000 µM | > 18500 µg/mL and > 50000 µM | > 18500 µg/mL and > 50000 µM | 1.7% | – | – | – | – | – | – | – | – | 37.5 ± 10.1% | Plasma level of derivative 9 (Conc.) after oral administration of the labelled derivative (in vivo; 0 min): 0 nM; Plasma level of intermediary metabolite 12 (Conc.) after oral administration of derivative 6 (in vivo; 0 min): 0 nM; Plasma level of derivative 9 (Conc.) after oral administration of the labelled derivative (in vivo; 30 min): 200 nM; Plasma level of intermediary metabolite 12 (Conc.) after oral administration of derivative 6 (in vivo; 30 min): 200 nM; Plasma level of derivative 9 (Conc.) after oral administration of the labelled derivative (in vivo; 60 min): 220 nM; Plasma level of intermediary metabolite 12 (Conc.) after oral administration of derivative 6 (in vivo; 60 min): 160 nM; Plasma level of derivative 9 (Conc.) after oral administration of the labelled derivative (in vivo; 90 min): 180 nM; Plasma level of intermediary metabolite 12 (Conc.) after oral administration of derivative 6 (in vivo; 90 min): 200 nM; Plasma level of derivative 9 (Conc.) after oral administration of the labelled derivative (in vivo; 120 min): 190 nM; Plasma level of intermediary metabolite 12 (Conc.) after oral administration of derivative 6 (in vivo; 120 min): 190 nM; Plasma level of derivative 9 (Conc.) after oral administration of the labelled derivative (in vivo; 180 min): 210 nM; Plasma level of intermediary metabolite 12 (Conc.) after oral administration of derivative 6 (in vivo; 180 min): 80 nM; Plasma level of derivative 9 (Conc.) after oral administration of the labelled derivative (in vivo; 240 min): 180 nM; Plasma level of intermediary metabolite 12 (Conc.) after oral administration of derivative 6 (in vivo; 240 min): 10 nM; Plasma level of derivative 9 (Conc.) after oral administration of the labelled derivative (in vivo; 360 min): 50 nM; Plasma level of intermediary metabolite 12 (Conc.) after oral administration of derivative 6 (in vivo; 360 min): 0 nM
4 | CCOC(=O)C1=C[C@@H](OC(CC)CC)[C@H](NC(C)=O)[C@@H](NC(=N)N)C1 [Compound 10] | > 50 mM | > 23400 µg/mL and > 50000 µM | > 23400 µg/mL and > 50000 µM | > 23400 µg/mL and > 50000 µM | 1.1% | – | – | – | – | – | – | – | – | 30.1 ± 2.3% | –
5 | CC(=O)N[C@H]1[C@H]([C@H](O)[C@H](O)CO)OC(C(=O)O)=C[C@@H]1N=C(N)N [Zanamivir, reference compound] | – | – | – | – | – | – | – | – | – | – | – | – | – | – | IC50 [1]: 600 nM; IC50 [2]: > 19500 nM; 90% inhibitory concentration, A/Jena/5258/2009 [3]: 0.125 (0.219) μM; 95% inhibitory concentration (values in parentheses), A/Jena/5258/2009 [3]: 0.125 (0.219) μM
